Measurements published in PubChem BioAssay (NCI).
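Following 48 hours of exposure in 96-well plates, responses at five concentrations were used to interpolate endpoints linearly. The concentration for 50% growth inhibition is given as GI50. TGI: total growth inhibition.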

Legend:
Test in all cases: DTP human tumour cell line panel, 48 h
[1] = system: 786-0 renal
[2] = system: A498 renal
[3] = system: A549 NSCLC
[4] = system: BT-549 breast
[5] = system: CAKI-1 renal
[6] = system: CCRF-CEM leukemia
[7] = system: COLO 205 colon
[8] = system: HCC-2998 colon
[9] = system: HCT-116 colon
[10] = system: HCT-15 colon
[11] = system: HL-60(TB) leukemia
[12] = system: HOP-62 NSCLC
[13] = system: HS 578T breast
[14] = system: HT29 colon
[15] = system: IGROV1 ovarian
[16] = system: K-562 leukemia
[17] = system: KM12 colon
[18] = system: LOX IMVI melanoma
[19] = system: M14 melanoma
[20] = system: MCF7 breast
[21] = system: MDA-MB-435
[22] = system: MDA-MB-468 breast
[23] = system: MOLT-4 leukemia
[24] = system: NCI-H226 lung
[25] = system: NCI-H23 lung
[26] = system: NCI-H460 lung
[27] = system: NCI-H522 lung
[28] = system: OVCAR-3 ovarian
[29] = system: OVCAR-4 ovarian
[30] = system: OVCAR-5 ovarian
[31] = system: OVCAR-8 ovarian
[32] = system: PC-3 prostate
[33] = system: RPMI-8226 leukemia
[34] = system: RXF 393 renal
[35] = system: SF-268 CNS
[36] = system: SF-295 CNS
[37] = system: SF-539 CNS
[38] = system: SK-MEL-2 melanoma
[39] = system: SK-MEL-5 melanoma
[40] = system: SK-OV-3 ovarian
[41] = system: SN12C renal
[42] = system: SNB-19 CNS
[43] = system: SNB-75 CNS
[44] = system: SR leukemia
[45] = system: SW-620 colon
[46] = system: TK-10 renal
[47] = system: U251 CNS
[48] = system: UACC-257 melanoma
[49] = system: UACC-62 melanoma
[50] = system: UO-31 renal

With `O=C1NC(=NC23CC4CC(CC(C4)C2)C3)N/C1=C\c1ccc2ncsc2c1` the GI50 [1] was 3.05 µM, the TGI [1] was > 100 µM and the GI50 [2] was 2700 nM. For the same compound, the TGI [2] was 7.79 µM, the GI50 [3] was 1190 nM and the TGI [3] was > 100 µM. For the same compound, the GI50 [4] was 1630 nM, the TGI [4] was 7 µM and the GI50 [5] was 1330 nM. The TGI [5] was > 100 µM, the GI50 [6] was 1120 nM and the TGI [6] was 5.96 µM. The GI50 [7] was 1800 nM, the TGI [7] was 6.77 µM and the GI50 [8] was 3.32 µM. For the same compound, the TGI [8] was > 100 µM, the GI50 [9] was 323 nM and the TGI [9] was > 100 µM. For the same compound, the GI50 [10] was 663 nM, the TGI [10] was > 100 µM and the GI50 [11] was 1630 nM. The TGI [11] was 5.25 µM, the GI50 [12] was 3.35 µM and the TGI [12] was > 100 µM. It also gave a GI50 [13] of 2730 nM, a TGI [13] of 8.13 µM and a GI50 [14] of 3.09 µM. For the same compound, the TGI [14] was > 100 µM, the GI50 [15] was 2580 nM and the TGI [15] was > 100 µM. For the same compound, the GI50 [16] was 762 nM, the TGI [16] was > 100 µM and the GI50 [17] was 1800 nM. The TGI [17] was > 100 µM, the GI50 [18] was 928 nM and the TGI [18] was > 100 µM. The GI50 [19] was 2420 nM, the TGI [19] was > 100 µM and the GI50 [20] was 1370 nM. The TGI [20] was > 100 µM, the GI50 [21] was 3.11 µM and the TGI [21] was > 100 µM. For the same compound, the GI50 [22] was 1240 nM, the TGI [22] was 3.67 µM and the GI50 [23] was 1650 nM. The TGI [23] was > 100 µM, the GI50 [24] was 1430 nM and the TGI [24] was > 100 µM. The GI50 [25] was 1580 nM, the TGI [25] was 7.36 µM and the GI50 [26] was 538 nM. For the same compound, the TGI [26] was > 100 µM, the GI50 [27] was 168 nM and the TGI [27] was 4.79 µM. It also gave a GI50 [28] of 1740 nM, a TGI [28] of 6.73 µM and a GI50 [29] of 3.2 µM. For the same compound, the TGI [29] was > 100 µM, the GI50 [30] was 2450 nM and the TGI [30] was > 100 µM. For the same compound, the GI50 [31] was 1680 nM, the TGI [31] was > 100 µM and the GI50 [32] was 3.29 µM. For the same compound, the TGI [32] was > 100 µM, the GI50 [33] was 1200 nM and the TGI [33] was 5.14 µM. The GI50 [34] was 2010 nM, the TGI [34] was 4.21 µM and the GI50 [35] was 2230 nM. The TGI [35] was 6.58 µM, the GI50 [36] was 3.4 µM and the TGI [36] was > 100 µM. It also gave a GI50 [37] of 432 nM, a TGI [37] of 3.06 µM and a GI50 [38] of 933 nM. The TGI [38] was 3.13 µM, the GI50 [39] was 899 nM and the TGI [39] was 5.56 µM. For the same compound, the GI50 [40] was 5.47 µM, the TGI [40] was > 100 µM and the GI50 [41] was 842 nM. The TGI [41] was > 100 µM, the GI50 [42] was 3.58 µM and the TGI [42] was > 100 µM. The GI50 [43] was 1620 nM, the TGI [43] was 4.29 µM and the GI50 [44] was 170 nM. For the same compound, the TGI [44] was 1240 nM, the GI50 [45] was 1810 nM and the TGI [45] was > 100 µM. For the same compound, the GI50 [46] was 2870 nM, the TGI [46] was > 100 µM and the GI50 [47] was 1790 nM. The TGI [47] was > 100 µM, the GI50 [48] was 4.11 µM and the TGI [48] was > 100 µM. For the same compound, the GI50 [49] was 3.11 µM, the TGI [49] was > 100 µM and the GI50 [50] was 2960 nM. The TGI [50] was 8.04 µM.
